Columns and labels:
human blood platelets [1] = assay: ADP-induced platelet aggregation in platelet-rich plasma; format: cell-based; conditions: 10 μM ADP, mean ± SD, n = 6–9
human blood platelets [2] = assay: Formation of thrombus on collagen in flow conditions; format: cell-based; conditions: whole blood perfused over collagen; 50 μM compound; n = 9
human blood platelets [3] = assay: Aggregation of blood platelets in whole blood; conditions: for effect on ADP-induced platelet aggregation in whole blood: ADP, 10, 30, 50 μM compound, n = 13; for effect on arachidonic acid-induced platelet aggregation in whole blood: data not shown; for effect on collagen-induced platelet aggregation in whole blood: collagen 1 μg/mL
[4] = molecular target: T1, human A2B adenosine receptor (Homo sapiens, UniProt P29275); conditions: read-out: Ki, A2B AR; USEF; HEK-A2B membranes; 25 nM [3H]-DPCPX
T1 sequence (P29275 1-332): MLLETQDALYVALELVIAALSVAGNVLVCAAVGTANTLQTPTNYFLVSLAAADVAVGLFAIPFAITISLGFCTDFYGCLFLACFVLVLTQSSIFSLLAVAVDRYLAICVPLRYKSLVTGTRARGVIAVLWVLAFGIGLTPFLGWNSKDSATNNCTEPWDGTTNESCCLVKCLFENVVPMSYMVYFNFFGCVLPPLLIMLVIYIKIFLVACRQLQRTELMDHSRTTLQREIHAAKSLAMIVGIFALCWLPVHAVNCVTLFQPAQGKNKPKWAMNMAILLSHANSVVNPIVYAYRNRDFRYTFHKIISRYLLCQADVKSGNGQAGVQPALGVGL

[5] = molecular target: T2, human A3 adenosine receptor (Homo sapiens, UniProt P0DMS8); conditions: read-out: Ki, A3 AR; USEF; HeLa-A3 membranes; 10 nM [3H]-NECA
T2 sequence (P0DMS8 1-318): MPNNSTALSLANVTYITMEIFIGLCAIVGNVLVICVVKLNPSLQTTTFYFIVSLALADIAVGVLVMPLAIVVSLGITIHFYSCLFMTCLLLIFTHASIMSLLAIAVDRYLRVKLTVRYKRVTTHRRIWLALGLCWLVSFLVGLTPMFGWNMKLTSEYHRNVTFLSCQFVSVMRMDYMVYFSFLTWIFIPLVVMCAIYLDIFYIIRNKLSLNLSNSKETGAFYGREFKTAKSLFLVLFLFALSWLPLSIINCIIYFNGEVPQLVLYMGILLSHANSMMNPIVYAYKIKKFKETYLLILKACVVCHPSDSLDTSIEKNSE

[6] = molecular target: T3, human A2A adenosine receptor (Homo sapiens, UniProt P29274); conditions: 50 μM compound; Fig. 1
[7] = molecular target: T4, human A1 adenosine receptor (Homo sapiens, UniProt P30542); assay: biochemical
T4 sequence (P30542 1-326): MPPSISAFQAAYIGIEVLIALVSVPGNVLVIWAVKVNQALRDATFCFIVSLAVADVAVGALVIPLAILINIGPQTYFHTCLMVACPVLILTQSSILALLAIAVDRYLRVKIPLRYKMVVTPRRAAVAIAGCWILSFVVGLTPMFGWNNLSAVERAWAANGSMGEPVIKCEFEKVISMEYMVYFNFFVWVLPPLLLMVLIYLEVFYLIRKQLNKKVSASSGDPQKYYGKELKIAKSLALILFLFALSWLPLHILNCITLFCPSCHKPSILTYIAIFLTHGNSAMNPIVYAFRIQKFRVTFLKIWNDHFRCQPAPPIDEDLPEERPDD

[8] = molecular target: T3, human A2A adenosine receptor; assay: biochemical
A3 receptor = conditions: read-out: experimental Ki, A3 AR; ref PubChem CID 9958472; cited from earlier work

T3 sequence (P29274 whole entry): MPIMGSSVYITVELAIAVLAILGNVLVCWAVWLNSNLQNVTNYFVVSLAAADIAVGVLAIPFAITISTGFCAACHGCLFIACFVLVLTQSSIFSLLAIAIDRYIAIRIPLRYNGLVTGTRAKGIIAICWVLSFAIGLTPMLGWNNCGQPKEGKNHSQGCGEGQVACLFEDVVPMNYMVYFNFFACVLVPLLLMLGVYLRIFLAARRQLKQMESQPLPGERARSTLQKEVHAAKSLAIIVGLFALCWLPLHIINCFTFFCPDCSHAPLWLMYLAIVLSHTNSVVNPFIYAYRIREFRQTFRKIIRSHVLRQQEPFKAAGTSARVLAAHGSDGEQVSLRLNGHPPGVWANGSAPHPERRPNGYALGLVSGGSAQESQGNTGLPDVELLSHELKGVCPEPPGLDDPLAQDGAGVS

| Compound | area under the aggregation curve, ADP-induced platelet aggregation (human blood platelets [1]; 10 μM compound) | area under the aggregation curve, ADP-induced platelet aggregation (human blood platelets [1]; 50 μM compound) | effect on thrombus formation on collagen under flow (human blood platelets [2]) | effect on ADP-induced platelet aggregation in whole blood (human blood platelets [3]) | effect on arachidonic acid-induced platelet aggregation in whole blood (human blood platelets [3]) | effect on collagen-induced platelet aggregation in whole blood (human blood platelets [3]) | Ki [4] | Ki [5] | radioligand displacement at A2A receptor [6] | Ki [7] | IC50 [8] | Ki (A3 receptor) |
| --- | --- | --- | --- | --- | --- | --- | --- | --- | --- | --- | --- | --- |
| 5′-ethylcarbamoyl-N^6-(3-phenylpropyl)adenosine [Compound 18] | 630.0 ± 80.3 arbitrary units | 336.8 ± 108.5 arbitrary units | did not exert an inhibitory effect | significantly inhibited | no effect | significantly inhibited | 1.38 µM | 0.0045 µM | – | – | – | – |
| OC[C@H]1O[C@@H](n2cnc3c(NCCCc4ccccc4)nc(Cl)nc32)[C@H](O)[C@@H]1O [Compound 24, 6-N-(3-phenylpropyl)-2-chloroadenosine] | – | – | – | – | – | – | – | – | at least 50% | 3.34 µM | 22 ± 4.4 µM | – |
| OC[C@H]1O[C@@H](n2cnc3c(NCCCc4ccccc4)ncnc32)[C@H](O)[C@@H]1O [Compound 40, N^6-(3-phenylpropyl)adenosine] | – | – | smaller than the thrombi in the untreated samples | significantly decreased | did not inhibit | did not inhibit | – | – | at least 50% | – | – | – |
| CNC(=O)[C@H]1O[C@@H](n2cnc3c(NCc4ccc(N)c(I)c4)ncnc32)[C@H](O)[C@@H]1O [I-AB-MECA] | – | – | – | – | – | – | – | – | – | – | – | 0.0012 to 0.0021 µM |

From PMC8448983 (European journal of medicinal chemistry, 2021)
